Test results published in patent publication US20130064901A1, “GENE EXPRESSION PROFILING FOR CLASSIFYING AND TREATING GASTRIC CANCER” (Agency for Science, Technology and Research, priority 2011, published 2013).
“Also recorded” adds a separate entry of the source. Like-named read-outs stand apart in the source and are kept apart here.

Tests used:
[1] = tested on: G-DIF gastric cancer cell lines; experiment: In vitro cell proliferation assay (MTS), G-DIF cell lines; format: cell-based, human; details: mean of 17 G-DIF cell lines, drug concentration at which 50% growth inhibition is achieved, read-out: Mean GI-50 concentration
Procedure: (§1) Cell proliferation assays were performed using a tetrazolium compound-based colorimetric method. Adherent or semi-adherent cell lines with doubling times less than 48 hours were used in this analysis. The cell lines for which cell proliferation assays were performed are: YCC19, YCC18, TMK1, YCC2, CLS145, YCC9, YCC6, NUGC3, HGC-27, Fu97, Ist1, YCC7, YCC16, Hs746T, MKN45, KatoIII, AGS, SNU719, AZ521, YCC1, MKN1, YCC11, IM95, MKN7, YCC3, YCC10, SCH and N87. Cell proliferation assays were performed using a tetrazolium compound-based colorimetric method (MTS kit, Promega, Madison, Wis., USA) according to the manufacturer's instructions and measured using an EnVision 2104 multilabel plate reader (Perkin Elmer, Finland) at 490 nm. Inhibition of cell growth by drugs was also visually confirmed under microscopy. Drugs used include cisplatin (Sigma, 479306-1G), oxaliplatin (Sigma, O9512), 5-Fluorouracil (Sigma, F6627-1G).
(§2) Of the 37 cell lines, 28 cell lines (11 G-INT and 17 G-DIF) had growth characteristics suitable for in vitro drug sensitivity testing. 5-FU, oxaliplatin and cisplatin are drugs presently employed in the adjuvant and 1st line palliative treatment of GC. The 28 cell lines were treated with increasing concentrations of these drugs.

[2] = tested on: GC subsets; details: INT-0116, ten-year update subgroup analysis; cited from earlier work
[3] = tested on: G-INT gastric cancer cell lines; experiment: In vitro cell proliferation assay (MTS), G-INT cell lines; format: cell-based, human; details: for In vitro sensitivity of G-INT versus G-DIF cell lines: 28 cell lines (11 G-INT and 17 G-DIF) treated with increasing concentrations; for GI50: mean of 11 G-INT cell lines, drug concentration at which 50% growth inhibition is achieved, read-out: Mean GI-50 concentration
Procedure: as §1, §2

Row | GI50 ([1]; Homo sapiens) | GI50 ([3]; Homo sapiens) | SMILES | Benefit from 5-FU therapy by GC subset [2] | In vitro sensitivity of G-INT versus G-DIF cell lines [3] | GI50 [1] | GI50 [3]
1 | 23.2 µM | 5.2 µM | O=c1[nH]cc(F)c(=O)[nH]1 [5-FU, 5-Fluorouracil] | all GC subsets benefited from 5-FU therapy except for cases with diffuse histology | G-INT cell lines were significantly more sensitive |  | 
2 |  |  | N.N.[Cl][Pt][Cl] [cisplatin] |  | G-DIF cell lines were more sensitive; also recorded: more resistant | 13.3 µM | 38.6 µM
3 |  |  | O=C1[O][Pt]2([NH][C@@H]3CCCC[C@H]3[NH]2)[O]C1=O [oxaliplatin] |  | G-INT cell lines were significantly more sensitive | 5.49 µM | 1.33 µM
